Data from paper PMC10099595, “Multimodal 4-arylchromene derivatives with microtubule-destabilizing, anti-angiogenic, and MYB-inhibitory activities” (Cancer Drug Resistance, 2023).
Where two headings read alike, the source gives them in different places.

Key:
[1] = tested on: MCF-7 breast carcinoma cells; experiment: MTT antiproliferative assay, MCF-7; type: cell-based; conditions: Homo sapiens, MCF7, 72 h
From the text: (§1) The following cell lines were used: 518A2 melanoma (Department of Radiotherapy, Medical University of Vienna, Austria)[15], HeLa cervix carcinoma, KBV1^Vbl (ACC-149 cervix carcinoma, MCF7 [ACC-115]) breast carcinoma, U-87 glioblastoma, HT-29 (ACC-299), HCT-116 (ACC-581) and HCT-116p53-/- colon carcinoma, EA.hy926 (ATCC® CRL-2922^TM) endothelial hybrid cells, and HDFa (ATCC® PCS-201-012^TM) adult human dermal fibroblasts. […] Only mycoplasma-free cultures were used.

[2] = tested on: HCT-116 p53-/- colon carcinoma cells; experiment: MTT antiproliferative assay, HCT-116 p53-/-; type: cell-based; conditions: Homo sapiens, 72 h
From the text: as §1

[3] = tested on: tested cancer and hybrid cell lines; experiment: MTT assay, average over all tested cancer and hybrid cell lines; conditions: Homo sapiens
Procedure: An 3-(4, 5-dimethylthiazol-2-yl)-2, 5-diphenyl tetrazolium bromid (MTT) assay was used for antiproliferative studies. Cancer cells (5 × 10^4 cells/mL, 100 μL/well) were placed in 96-well plates (10 × 10^4 cells/mL for HDFA and U87 cells), and the cells were incubated for 24 h at 5% CO2 and 95% humidity. Then, cells were treated with test compounds (at various concentrations) or solely with DMSO as a negative control for 72 h. Then, 12.5 μL of a 0.5% MTT solution in phosphate-buffered saline (PBS) was added to the cells, followed by incubation for 2 h at 37 °C. After centrifugation of the plates (300 × g, 5 min, 4 °C), the medium was discarded, and 25 μL of DMSO containing 10% SDS and 0.6% acetic acid was added, followed by incubation at 37 °C for at least 1 h. Formazan absorbance at λ = 570 nm was measured using a Tecan infinite F200 microplate reader and corrected for the background (λ = 630 nm). The 50% inhibitory concentration (IC50) values were calculated from dose-response curves (means ± SD, four independent experiments) compared to DMSO-treated control cells, which were set to 100%. GraphPad Prism 9 was used for curve-fitting.
The selectivity index (SI) was calculated as a measure of selectivity toward cancer cells compared to non-malignant cells.

[4] = tested on: 518A2 melanoma cells; experiment: MTT antiproliferative assay, 518A2; type: cell-based; conditions: Homo sapiens, 72 h
From the text: as §1

[5] = tested on: HT-29 colon carcinoma cells; experiment: MTT antiproliferative assay, HT-29; type: cell-based; conditions: Homo sapiens, 72 h
From the text: as §1

[6] = tested on: U-87 glioblastoma cells; experiment: MTT antiproliferative assay, U87; type: cell-based; conditions: Homo sapiens, 72 h
From the text: as §1

[7] = tested on: KB-V1^Vbl cervix carcinoma cells; experiment: MTT antiproliferative assay, KB-V1Vbl (with or without verapamil); type: cell-based, human; conditions: Homo sapiens, KB-V1/Vbl, 72 h, read-out: IC50 KB-V1^Vbl
From the text: as §1

[8] = tested on: HCT-116 colon carcinoma cells; experiment: MTT antiproliferative assay, HCT-116; type: cell-based; conditions: Homo sapiens, 72 h
From the text: as §1

[9] = tested on: HeLa cervix carcinoma cells; experiment: MTT antiproliferative assay, HeLa; type: cell-based; conditions: Homo sapiens, 72 h
From the text: as §1

[10] = tested on: EA.hy926 endothelial hybrid cells; experiment: MTT antiproliferative assay, EA.hy926; type: cell-based; conditions: Homo sapiens, EA.hy 926, 72 h
From the text: as §1

[11] = tested on: 518A2 melanoma cells; experiment: Cell-cycle analysis (FACS, propidium iodide); type: cell-based, human; conditions: 518A2 cells, 25 nM, 24 h
Procedure: 518A2 melanoma cells (10 × 10^4 cells/mL, 3 mL/well) were cultivated in six-well plates for 24 h. After the treatment with test compounds (10 and 25 nm), C-A4 (10 and 25 nm), or DMSO (vehicle) for an additional 24 h, the cells were trypsinized, centrifuged (300 × g, 5 min, 4 °C), and fixed in 70% EtOH for min. 24 h. For FACS measurement, cells were washed in PBS and stained with propidium iodide solution (50 µg/mL PI, 50 µg/mL RNase A in 0.1% sodium citrate) for 30 min at 37 °C. The DNA content of at least 10000 single cells was determined using a Beckmann Coulter Cytomics FC500 flow cytometer (λex = 488 nm, λem = 570 nm). CXP software (Beckman Coulter) was used to analyze the cells in the cell cycle phases (sub-G1, G1, S, G2/M).

[12] = tested on: microtubule cytoskeleton of 518A2 melanoma cells; experiment: Microtubule immunofluorescence staining; type: cell-based, human; conditions: 518A2 cells, 100 nM
Procedure: The cells were treated with test compounds and controls (25 and 100 nm) for 0.5, 1, 3, and 6 h and washed with cytoskeletal buffer (100 nm PIPES, 3 nm MgCl2, 138 nm KCl, 2 nm EGTA, 300 nm sucrose, pH 6.8). Fixation and permeabilization were performed for 5 min with 3.7% formaldehyde and 0.2% Triton X-100 in a cytoskeletal buffer. The cells were fixed with cold EtOH for 10 s, rehydrated in PBS, and blocked with 1% bovine serum albumin in PBS for 30 min. The microtubules were stained for 1 h with primary (anti-α-tubulin, mouse monoclonal antibody) and secondary antibodies (goat anti-mouse IgG-AF-546, Invitrogen) and washed with PBS between each treatment. Nuclei were stained using DAPI (1 µg/mL in PBS) for 30 min. The coverslips were placed in Roti®-Mount FluorCare. Microtubules (λex = 488 nm, λem = 507 nm) and nuclei (λex = 358 nm, λem = 461 nm) were documented by confocal microscopy (Leica TCS SP5 confocal microscope, 630 × magnification) and edited with ImageJ.

[13] = tested on: SW620/Ad300 colorectal cancer cells; design: method as in PMID 9187269, PMID 34977876; conditions: MDR SW620/Ad300 cells; cited from earlier work

SMILES | IC50 [1] | IC50 [2] | IC50 [4] | IC50 [5] | IC50 [6] | IC50 [8] | IC50 [9] | IC50 [10] | melting point | reduction of effective concentration by treatment with P-gp modulators [13] | other results
COc1ccc2c(c1)OC(N)=C(C#N)C2c1ccccc1Cl (centres unmarked) [2H, 2-Amino-3-cyano-4-(2’-chlorophenyl)-7-methoxy-4H-chromene] | 5100 ± 370 nM | 2800 ± 300 nM | 2000 ± 100 nM | 5300 ± 970 nM | 7400 ± 200 nM | 3700 ± 400 nM | 1400 ± 100 nM | 3700 ± 300 nM | 184 °C |  | IC50 ([3]; read-out: Average IC50 value of the tested cancer and hybrid cell lines (Ø IC50), average of all cell lines of Table 2): > 500 nM; IC50 ([7]; MTT, without verapamil): 1900 ± 200 nM
COc1ccc(/C=C\c2cc(OC)c(OC)c(OC)c2)cc1O [C-A4, combretastatin A4, reference compound] |  |  |  |  |  |  |  |  |  |  | G2/M cell-cycle arrest (in words) [11]: significant G2/M cell-cycle arrest; time to change of the microtubule structure [12]: 30 min
C#CCOc1ccc2c(c1)OC(N)=C(C#N)C2c1cc(Br)c(OC)c(OC)c1 (centres unmarked) [compound 3, 2-Amino-3-cyano-4-(3’-bromo-4’, 5’-dimethoxyphenyl)-7-propargyloxy-4H-chromene] | 70 ± 4 nM | 90 ± 7 nM | 60 ± 3 nM | 2100 ± 300 nM | 90 ± 3 nM | 300 ± 10 nM | 40 ± 2 nM | 80 ± 2 nM | 206 to 207 °C |  | IC50 ([3]; read-out: Average IC50 value of the tested cancer and hybrid cell lines (Ø IC50)): 321 nM; IC50 [7]: 80 ± 3 nM
CC(=O)O[C@H]1C(=O)[C@@]2(C)[C@H]([C@H](OC(=O)c3ccccc3)[C@]3(O)C[C@H](OC(=O)[C@H](O)[C@@H](NC(=O)c4ccccc4)c4ccccc4)C(C)=C1C3(C)C)[C@]1(OC(C)=O)CO[C@@H]1C[C@@H]2O [paclitaxel] |  |  |  |  |  |  |  |  |  | 100 fold | 
CC[C@]1(O)C[C@@H]2CN(CCc3c([nH]c4ccccc34)[C@@](C(=O)OC)(c3cc4c(cc3OC)N(C)[C@H]3[C@@](O)(C(=O)OC)[C@H](OC(C)=O)[C@]5(CC)C=CCN6CC[C@]43[C@@H]65)C2)C1 [vinblastine] |  |  |  |  |  |  |  |  |  | 351 fold | 
